Laboratory results: patent publication US4451465A, “Anti-obesity agents” (John Wyeth & Brother Ltd., priority 1981, dated 1984)

Assays:
[1] = target: BAT homogenate Na^+, K^+ -ATPase; experiment: stimulation of Na^+, K^+ -ATPase in BAT homogenate; type: biochemical, rat (adult male Sprague-Dawley); settings: for IC50: homogenate, read-out: IC50 for stimulation (to 50% maximum) of BAT Na^+,K-ATP-ase, homogenate
Method: (§1) In one procedure for testing for potential thermogenic activity the compounds are tested for their ability to inhibit noradrenaline uptake in rat brown adipose tissue (BAT). Compounds that have a specific thermogenic effect without having undesirable central effects should inhibit BAT noradrenaline (NA) uptake at lower concentrations than those required to inhibit corresponding NA uptake in the brain. In another procedure for testing for thermogenic activity the compounds are investigated for their effect on the activity of sodium potassium activated, magnesium dependent adenosinetriphosphatase (Na^+, K^+ -ATPase) in rat BAT fractions.
(§2) In the above mentioned procedures adult male Sprague-Dawley rats were used. Homogenates of BAT were prepared by homogenising interscapular BAT. Microsomal material was separated by centrifugation of the BAT homogenate. Measurement of NA uptake into BAT and brain slices was carried out using radiolabelled noradrenaline (based upon the procedure of Sugden, Br. J. Pharmac., 1974,51, 467-469). Adenosinetriphosphate activities were measured by monitoring the release of inorganic phosphate from ATP. Na^+, K^+ -ATPase was calculated as the difference between total and sodium ATPase.

[2] = test system: noradrenaline (NA) uptake in rat brown adipose tissue (BAT); experiment: inhibition of noradrenaline uptake in BAT; type: cell-based, rat (adult male Sprague-Dawley); settings: for IC50: mean ± S.E. mean of 6 experiments, rat BAT
Method: In one procedure for testing for potential thermogenic activity the compounds are tested for their ability to inhibit noradrenaline uptake in rat brown adipose tissue (BAT). […] In another procedure for testing for thermogenic activity the compounds are investigated for their effect on the activity of sodium potassium activated, magnesium dependent adenosinetriphosphatase (Na^+, K^+ -ATPase) in rat BAT fractions.
as §2, with “Measurement of NA uptake into BAT and brain slices was carried out using radiolabelled noradrenaline (based upon the procedure of Sugden, Br. J. Pharmac., 1974,51, 467-469).” left out

male rats = experiment: chronic (28 day) administration to male rats: body weight and food intake; type: in vivo, rat; settings: 28 days
Text: The anti-obesity activity of (±)-2,3,4,10-tetrahydro-3,3-dimethyl-10-phenylpyrimido[1,2-a]indol-10-ol has been confirmed by chronic (28 day) administration to male rats. The animals were fed on a standard pelleted diet and the active agent was introduced into the water supply. Body weight, food and water intake and behaviour were monitored over the next four weeks.

[3] = test system: noradrenaline (NA) uptake into brain slices; experiment: inhibition of noradrenaline uptake in brain slices; type: cell-based, rat (adult male Sprague-Dawley); settings: mean ± S.E. mean of 6 experiments; rat brain slices
Method: as §1, §2

[4] = target: BAT microsomal Na^+, K^+ -ATPase; experiment: stimulation of Na^+, K^+ -ATPase in BAT microsomal fraction; type: biochemical, rat (adult male Sprague-Dawley)
Method: as §1, §2

brown adipose tissue = experiment: thermogenic activity (pharmacological testing); set-up: species or system rat; settings: compared with corresponding (+)-enantiomers
Method: as §1, §2

rats [5] = experiment: resting metabolic rate (resting oxygen consumption) in rats; type: in vivo, rat
Text: (§3) It is also known that there is a good correlation between BAT homogenate Na^+, K^+ -ATPase activity and the resting metabolic rate (see, for example, Rothwell, Stock and Wyllie, Biochem. Pharmacol., 1981, 30, 1709-1712) and those compounds, such as the agents of the present invention that activate BAT Na^+ K^+ -ATPase activity are indicated as useful as thermogenic agents and can be used in the treatment of obesity.

rats [6] = experiment: signs of CNS arousal in rats; type: in vivo, rat; settings: dosages as high as 30 mg/kg p.o.
Text: as §3

Structure (SMILES)	IC50 [1]	IC50 [2]	weight gain compared to controls (male rats; 3.5 mg/kg/day in water supply)	weight gain compared to controls (male rats; 6.5 mg/kg/day in water supply)	body weight (male rats; 10.8 mg/kg/day in water supply)	food intake (male rats; 3.5, 6.5 and 10.8 mg/kg/day in water supply)	IC50 [3]	IC50 for stimulation (to 50% maximum) of BAT Na^+,K-ATP-ase, microsomal fraction [4]	activity as thermogenic agents, (-) versus (+)-enantiomers (brown adipose tissue)	stimulation of homogenate Na^+, K^+ -ATPase ([1]; BAT homogenate)	resting metabolic rate (resting oxygen consumption) (rats [5])	potency in inhibiting NA uptake into BAT versus brain slices ([2]; BAT compared with brain slices)	direct stimulation of BAT microsomal Na^+, K^+ -ATPase ([4]; BAT microsomal)	signs of CNS arousal (rats [6])
CC1(C)CN=C2N(C1)c1ccccc1C2(O)c1ccccc1 (racemic) [(±), (±)-2,3,4,10-tetrahydro-3,3-dimethyl-10-phenylpyrimido[1,2-a]indol-10-ol]	43 nM	28 nM	reduced weight gain	reduced weight gain	weight loss	no significant effect on food intake	3400 nM	none at 10^-4	–	–	–	–	–	–
CC1(C)CN=C2N(C1)c1ccccc1C2(O)c1ccccc1 (single isomer, unassigned; (-)) [(-), (-)-2,3,4,10-Tetrahydro-3,3-dimethyl-10-phenylpyrimido[1,2-a]indol-10-ol]	32 nM	18 nM	–	–	–	–	2400 nM	none at 10^-4	more active, as thermogenic agents, than the corresponding (+)-enantiomers	–	–	–	–	–
CC1(C)CN=C2N(C1)c1ccccc1C2(O)c1ccccc1 (stereo not drawn) [compound of the invention, 2,3,4,10-tetrahydro-3,3-dimethyl-10-phenylpyrimido[1,2-a]indol-10-ol]	–	–	–	–	–	–	–	–	–	significant stimulation	increases the resting metabolic rate	considerably more potent in inhibiting NA uptake into BAT than into brain slices	did not directly stimulate	did not produce signs of CNS arousal
